According to US20240033370A1, “ANTI-PD-L1 IMMUNOCONJUGATES, AND USES THEREOF” (BOLT BIOTHERAPEUTICS, INC., priority 2020, published 2024):

What was measured:
human TLR7 = human TLR7 (Homo sapiens (Human), UniProt Q9NYK1); test: HEK293 NFKB reporter assay, human TLR7; type: cell-based; conditions: HEK293 reporter cells expressing human TLR7; read-out: HEK293 hTLR7 EC50
Description: (§1) Each compound was synthesized, purified, and characterized by mass spectrometry and shown to have the mass indicated. Additional experimental procedures are found in the Examples. Activity against HEK293 NFKB reporter cells expressing human TLR7 or human TLR8 was measured according to Example 202.
(§2) HEK293 reporter cells expressing human TLR7 or human TLR8 were purchased from Invivogen and vendor protocols were followed for cellular propagation and experimentation. Briefly, cells were grown to 80-85% confluence at 5% CO2 in DMEM supplemented with 10% FBS, Zeocin, and Blasticidin. Cells were then seeded in 96-well flat plates at 4×10^4 cells/well with substrate containing HEK detection medium and immunostimulatory molecules. Activity was measured using a plate reader at 620-655 nm wavelength.

human TLR8 = human TLR8 (Homo sapiens (Human), UniProt Q9NR97); test: HEK293 NFKB reporter assay, human TLR8; type: cell-based; conditions: HEK293 reporter cells expressing human TLR8; read-out: HEK293 hTLR8 EC50
human TLR8, sequence (Q9NR97 27-1041): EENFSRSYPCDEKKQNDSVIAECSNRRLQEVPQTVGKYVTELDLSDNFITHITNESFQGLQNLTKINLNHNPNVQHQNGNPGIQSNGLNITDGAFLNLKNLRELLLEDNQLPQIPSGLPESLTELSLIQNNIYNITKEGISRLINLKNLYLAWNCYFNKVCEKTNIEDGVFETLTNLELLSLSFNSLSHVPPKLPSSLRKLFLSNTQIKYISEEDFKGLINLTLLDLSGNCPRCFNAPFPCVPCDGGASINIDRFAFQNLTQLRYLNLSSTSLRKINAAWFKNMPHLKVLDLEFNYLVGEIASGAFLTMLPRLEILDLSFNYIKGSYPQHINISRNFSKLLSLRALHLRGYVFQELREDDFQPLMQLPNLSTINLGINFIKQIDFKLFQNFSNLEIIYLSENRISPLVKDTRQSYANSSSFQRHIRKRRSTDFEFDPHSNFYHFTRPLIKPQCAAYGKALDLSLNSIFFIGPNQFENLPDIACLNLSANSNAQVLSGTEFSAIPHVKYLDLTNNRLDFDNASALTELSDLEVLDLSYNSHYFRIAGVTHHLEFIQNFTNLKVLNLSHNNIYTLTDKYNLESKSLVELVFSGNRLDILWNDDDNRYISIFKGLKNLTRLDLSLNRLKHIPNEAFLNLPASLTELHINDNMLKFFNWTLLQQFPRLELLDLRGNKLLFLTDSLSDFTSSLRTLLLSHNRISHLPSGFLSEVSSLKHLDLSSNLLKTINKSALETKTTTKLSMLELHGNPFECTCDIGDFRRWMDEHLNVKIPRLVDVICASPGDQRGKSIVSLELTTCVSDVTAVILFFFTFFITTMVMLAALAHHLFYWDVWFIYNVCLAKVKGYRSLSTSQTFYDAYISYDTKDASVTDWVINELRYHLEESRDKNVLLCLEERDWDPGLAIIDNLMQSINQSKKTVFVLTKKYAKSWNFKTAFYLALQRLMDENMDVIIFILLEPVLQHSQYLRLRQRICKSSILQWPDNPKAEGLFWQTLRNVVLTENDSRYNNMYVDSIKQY
Description: as §1, §2

human TLR7, sequence (Q9NYK1 27-1049): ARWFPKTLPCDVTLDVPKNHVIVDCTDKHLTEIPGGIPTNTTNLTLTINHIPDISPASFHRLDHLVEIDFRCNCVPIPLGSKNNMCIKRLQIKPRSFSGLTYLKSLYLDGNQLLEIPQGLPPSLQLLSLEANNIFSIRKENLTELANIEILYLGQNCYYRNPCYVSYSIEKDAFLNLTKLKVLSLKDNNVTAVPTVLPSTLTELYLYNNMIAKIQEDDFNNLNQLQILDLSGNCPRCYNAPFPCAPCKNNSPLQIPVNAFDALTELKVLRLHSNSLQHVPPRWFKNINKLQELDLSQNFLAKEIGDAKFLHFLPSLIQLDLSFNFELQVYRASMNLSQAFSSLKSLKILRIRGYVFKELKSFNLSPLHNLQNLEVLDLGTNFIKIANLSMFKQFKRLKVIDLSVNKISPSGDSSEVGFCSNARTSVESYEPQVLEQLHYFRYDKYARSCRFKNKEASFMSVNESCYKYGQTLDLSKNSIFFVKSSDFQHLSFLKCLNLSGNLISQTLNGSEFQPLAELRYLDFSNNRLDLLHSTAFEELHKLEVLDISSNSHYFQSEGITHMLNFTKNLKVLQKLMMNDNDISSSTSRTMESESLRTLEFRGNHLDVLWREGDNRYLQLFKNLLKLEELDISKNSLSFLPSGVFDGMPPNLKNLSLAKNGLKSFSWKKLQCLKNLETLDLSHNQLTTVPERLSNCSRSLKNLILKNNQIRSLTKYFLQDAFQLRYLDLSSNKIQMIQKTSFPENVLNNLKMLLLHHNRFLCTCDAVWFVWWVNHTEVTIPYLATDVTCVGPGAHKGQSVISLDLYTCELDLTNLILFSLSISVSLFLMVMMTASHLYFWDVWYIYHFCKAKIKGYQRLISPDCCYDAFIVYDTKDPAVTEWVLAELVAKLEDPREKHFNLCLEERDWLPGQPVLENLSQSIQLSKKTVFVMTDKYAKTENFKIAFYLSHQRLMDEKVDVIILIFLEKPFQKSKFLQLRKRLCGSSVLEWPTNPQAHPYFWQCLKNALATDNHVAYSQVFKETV

CCCN(OCC)C(=O)C1=Cc2ccc(-c3ncc(CN)cn3)cc2N=C(N)C1 [CycBz-10] showed an EC50 (human TLR7) of 9 µM.
Work on CCCN(OCCNC(=O)NC1COC1)C(=O)C1=Cc2ccc(-c3cnc(CN)nc3)cc2N=C(N)C1 [CycBz-17] yielded an EC50 (human TLR7) of 9 µM and an EC50 (human TLR8) of 9 µM.
In the case of CCCN(CC1CNC(=O)O1)C(=O)C1=Cc2ccc(-c3cnc(CN)nc3)cc2N=C(N)C1 (centres unmarked) [CycBz-25], the EC50 (human TLR7) is reported as 9 µM.
Compound CCCN(CCCO)C(=O)C1=Cc2ccc(-c3cnc(CN)nc3)cc2N=C(N)C1 [CycBz-26] has an EC50 (human TLR7) of 9 µM and an EC50 (human TLR8) of 9 µM.
Compound CCCN(CC1CNC(=O)CO1)C(=O)C1=Cc2ccc(-c3cnc(CN)nc3)cc2N=C(N)C1 (centres unmarked) [CycBz-42] has an EC50 (human TLR7) of 9 µM and an EC50 (human TLR8) of 9 µM.
CCCN(OCCO)C(=O)C1=Cc2ccc(-c3cncc(S(=O)(=O)N4CC(CN)C4)c3)cc2N=C(N)C1 [CycBz-43] showed an EC50 (human TLR7) of 9 µM.
CCCN(C(=O)C1=Cc2ccc(-c3cnc(CN)nc3)cc2N=C(N)C1)[C@H]1C[C@H](NC(=O)OC2CCC2)C1 [CycBz-44] gave an EC50 (human TLR7) of 9 µM.
In the case of CCCN(OCC1COC(=O)N1)C(=O)C1=Cc2ccc(-c3cnc(CN)nc3)cc2N=C(N)C1 (centres unmarked) [CycBz-46], the EC50 (human TLR7) is reported as 9 µM.
For CCCN(OCC)C(=O)C1=Cc2ccc(-c3cc(CN)ncn3)cc2N=C(N)C1 [CycBz-48], the EC50 (human TLR7) was 9 µM and the EC50 (human TLR8) was 2.16 µM.
Work on CCCN(OCC(F)(F)F)C(=O)C1=Cc2ccc(-c3cccc(S(=O)(=O)N4CC(CN)C4)c3)cc2N=C(N)C1 [CycBz-49] yielded an EC50 (human TLR7) of 3.93 µM and an EC50 (human TLR8) of 0.461 µM.
CCCN(OCC)C(=O)C1=Cc2ccc(-c3cccc(S(=O)(=O)N4CC(CNC(=O)C5CCNCC5)C4)c3)cc2N=C(N)C1 [CycBz-51] showed an EC50 (human TLR7) of 9 µM and an EC50 (human TLR8) of 4.19 µM.
CCCN(OCC)C(=O)C1=Cc2ccc(-c3ccc(C(=O)OC)cc3)cc2N=C(N)C1 [CycBz-52] showed an EC50 (human TLR7) of 5.76 µM and an EC50 (human TLR8) of 0.629 µM.
With CCCN(OCC)C(=O)C1=Cc2ccc(-c3ccc(C(=O)N4CCC(N)C4)cc3)cc2N=C(N)C1 (centres unmarked) [CycBz-54] the EC50 (human TLR7) was 3.09 µM and the EC50 (human TLR8) was 0.86 µM.
Compound CCCN(OCC)C(=O)C1=Cc2ccc(-c3ccc(C(=O)N4CCC(NC(=O)OC(C)(C)C)C4)cc3)cc2N=C(N)C1 (centres unmarked) [CycBz-55] has an EC50 (human TLR7) of 3.68 µM and an EC50 (human TLR8) of 0.377 µM.
With CCCN(CCCO)C(=O)C1=Cc2ccc(-c3cccc(S(=O)(=O)N4CC(CNC(=O)OC(C)(C)C)C4)c3)cc2N=C(N)C1 [CycBz-58] the EC50 (human TLR7) was 7.15 µM and the EC50 (human TLR8) was 0.374 µM.
In the case of CCCN(OCC)C(=O)C1=Cc2ccc(-c3ccc(C(=O)N4CCC[C@H]4C(=O)OC)cc3)cc2N=C(N)C1 [CycBz-59], the EC50 (human TLR7) is reported as 0.047 µM and the EC50 (human TLR8) is reported as 0.006 µM.
For CCCN(OCCNC(=O)OC1CCC1)C(=O)C1=Cc2ccc(-c3cccc(S(=O)(=O)N4CC(CN)C4)c3)cc2N=C(N)C1 [CycBz-60], the EC50 (human TLR7) was 0.738 µM and the EC50 (human TLR8) was 0.163 µM.
CCCN(CCCCO)C(=O)C1=Cc2ccc(-c3cccc(S(=O)(=O)N4CC(CN)C4)c3)cc2N=C(N)C1 [CycBz-62] was tested, and the EC50 (human TLR7) was 9 µM and the EC50 (human TLR8) was 4.66 µM.
For CCCN(CCCO)C(=O)C1=Cc2ccc(-c3cccc(S(=O)(=O)N4CC(CN)C4)c3)cc2N=C(N)C1 [CycBz-63], the EC50 (human TLR7) was 9 µM and the EC50 (human TLR8) was 3.61 µM.
Work on CCCN(OCC)C(=O)C1=Cc2ccc(-c3ccc(C(=O)N4CCC[C@@H]4C(=O)OC)cc3)cc2N=C(N)C1 [CycBz-64] yielded an EC50 (human TLR7) of 3.43 µM and an EC50 (human TLR8) of 0.097 µM.
Compound CCCN(CCCNC(=O)OC1CCC1)C(=O)C1=Cc2ccc(-c3cccc(S(=O)(=O)N4CC(CN)C4)c3)cc2N=C(N)C1 [CycBz-65] has an EC50 (human TLR7) of 2.31 µM and an EC50 (human TLR8) of 1.56 µM.
CCCN(OCC)C(=O)C1=Cc2ccc(-c3ccc(C(=O)N4CCCC4)cc3)cc2N=C(N)C1 [CycBz-67] showed an EC50 (human TLR7) of 3.01 µM and an EC50 (human TLR8) of 0.256 µM.
In the case of CCCN(CCO)C(=O)C1=Cc2ccc(-c3cccc(S(=O)(=O)N4CC(CN)C4)c3)cc2N=C(N)C1 [CycBz-68], the EC50 (human TLR7) is reported as 9 µM and the EC50 (human TLR8) is reported as 4.91 µM.
With CCCN(CCCNC(N)=O)C(=O)C1=Cc2ccc(-c3cccc(S(=O)(=O)N4CC(CN)C4)c3)cc2N=C(N)C1 [CycBz-70] the EC50 (human TLR7) was 9 µM and the EC50 (human TLR8) was 9 µM.
With CCCN(OCC)C(=O)C1=Cc2ccc(-c3ccc(C(=O)N[C@@H](C)C(=O)OC(C)(C)C)cc3)cc2N=C(N)C1 [CycBz-74] the EC50 (human TLR7) was 1.92 µM and the EC50 (human TLR8) was 0.012 µM.
Work on CCCN(OCC)C(=O)C1=Cc2ccc(-c3ccc(C(=O)N[C@H](C)C(=O)OC(C)(C)C)cc3)cc2N=C(N)C1 [CycBz-75] yielded an EC50 (human TLR7) of 4.75 µM and an EC50 (human TLR8) of 0.086 µM.
